Measured values reported in ChEMBL document CHEMBL4406848, “Novel water soluble BODIPY compounds: Synthesis, photochemical, DNA interaction, topoisomerases inhibition and photodynamic activity properties” (Eur J Med Chem, 2019).
Active and inactive are the calls of the source. No cut-off for these calls is given here.

Tests used:
DNA [1] = test: Induction of Escherichia coli plasmid pBR322 DNA cleavage assessed as linear form at 50 uM irradiated with light and incubated for 1 hr by agarose gel electrophoresis; format: nucleic-acid assay
[2] = Induction of singlet oxygen generation in TBS solution assessed as singlet oxygen quantum yield by measuring reduction in ADMA irradiated with 650 nanometer laser light; format: functional
Calf thymus DNA [3] = test: Competitive binding affinity to calf thymus DNA assessed as binding constant in presence of ethidium bromide incubated for 10 mins by UV-visible spectrophotometry; format: nucleic-acid assay; conditions: Bos taurus
DNA [4] = test: Induction of Escherichia coli plasmid pBR322 DNA cleavage assessed as increase in nicked circular DNA in presence of light irradiation and incubated for 1 hr by agarose gel electrophoresis; format: nucleic-acid assay
HCT-116 [5] = test: Induction of apoptosis in human HCT116 cells assessed as viable cells at 5 uM incubated for 24 hrs in presence of irradiation by annexin V FITC and propidium iodide based flow cytometry (reference value: 94.8 %); format: functional; conditions: HCT-116, light or radiation study, read-out: Activity
[6] = biological target: T1, DNA topoisomerase 1 (Homo sapiens) (UniProt P11387); test: Inhibition of recombinant human topoisomerase 1 assessed as linear DNA at 50 uM incubated for 1 hr by ethidium bromide staining based agarose gel electrophoresis method relative to control
T1 sequence (whole entry): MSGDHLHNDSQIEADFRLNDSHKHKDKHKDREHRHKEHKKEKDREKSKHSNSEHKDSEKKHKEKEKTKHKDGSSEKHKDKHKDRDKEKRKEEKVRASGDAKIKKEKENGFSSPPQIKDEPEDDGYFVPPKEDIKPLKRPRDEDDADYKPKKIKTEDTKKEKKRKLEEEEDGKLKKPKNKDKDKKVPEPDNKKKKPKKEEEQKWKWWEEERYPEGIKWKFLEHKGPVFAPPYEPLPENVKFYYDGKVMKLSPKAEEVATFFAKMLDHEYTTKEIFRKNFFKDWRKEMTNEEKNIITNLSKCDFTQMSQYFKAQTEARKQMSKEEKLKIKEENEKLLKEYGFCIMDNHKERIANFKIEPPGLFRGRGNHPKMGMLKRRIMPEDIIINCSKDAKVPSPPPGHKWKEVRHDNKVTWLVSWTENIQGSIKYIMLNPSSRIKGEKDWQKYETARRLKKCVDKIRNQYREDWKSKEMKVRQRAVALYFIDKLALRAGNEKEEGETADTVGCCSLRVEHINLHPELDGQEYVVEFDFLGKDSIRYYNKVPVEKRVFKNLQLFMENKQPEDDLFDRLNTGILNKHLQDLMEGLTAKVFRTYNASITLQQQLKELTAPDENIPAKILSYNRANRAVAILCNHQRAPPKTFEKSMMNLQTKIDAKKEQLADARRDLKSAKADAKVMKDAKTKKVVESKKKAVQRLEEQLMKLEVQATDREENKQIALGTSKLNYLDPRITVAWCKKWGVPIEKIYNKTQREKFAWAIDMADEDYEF

HCT-116 [7] = test: Induction of apoptosis in human HCT116 cells assessed as late apoptotic cells at 5 uM incubated for 24 hrs in presence of irradiation by annexin V FITC and propidium iodide based flow cytometry (reference value: 1.6 %); format: functional
HCT-116 [8] = test: Cytotoxicity against human HCT116 cells assessed as cell viability at 0.5 and 1 uM incubated for 24 hrs in dark by MTT assay; format: functional, cell-based
HCT-116 [9] = test: Cytotoxicity against human HCT116 cells assessed as cell viability incubated for 24 hrs in dark by MTT assay; format: functional, cell-based; conditions: for IC50: HCT-116, 24 h
DNA [10] = test: Induction of Escherichia coli plasmid pBR322 DNA cleavage assessed as decrease in supercoiled DNA at 50 uM in presence of light irradiation and incubated for 1 hr by agarose gel electrophoresis; format: nucleic-acid assay
Calf thymus DNA [11] = test: Binding affinity to calf thymus DNA assessed as percentage of hypochromicity incubated for 10 mins by UV-visible spectrophotometry; format: nucleic-acid assay; conditions: Bos taurus
[12] = Induction of singlet oxygen generation in DMSO solution assessed as singlet oxygen quantum yield by measuring reduction in DPBF irradiated with 650 nanometer laser light; format: functional
DNA [13] = test: Induction of Escherichia coli plasmid pBR322 DNA cleavage assessed as increase in nicked circular DNA at 50 uM in presence of light irradiation and incubated for 1 hr by agarose gel electrophoresis; format: nucleic-acid assay
HCT-116 [14] = test: Cytotoxicity against human HCT116 cells assessed as cell viability at 50 uM incubated for 24 hrs in dark by MTT assay relative to control; format: functional; conditions: HCT-116, 24 h, read-out: Activity
DNA [15] = test: Induction of Escherichia coli plasmid pBR322 DNA cleavage assessed as increase in nicked circular DNA at 6.25 to 50 uM in presence of light irradiation and incubated for 1 hr by agarose gel electrophoresis; format: nucleic-acid assay
HCT-116 [16] = test: Induction of apoptosis in human HCT116 cells assessed as necrotic cells at 50 uM incubated for 24 hrs in presence of irradiation by annexin V FITC and propidium iodide based flow cytometry (reference value: 0.2 %); format: functional
HCT-116 [17] = test: Induction of apoptosis in human HCT116 cells assessed as early apoptotic cells at 50 uM incubated for 24 hrs in presence of irradiation by annexin V FITC and propidium iodide based flow cytometry (reference value: 3.4 %); format: functional
[18] = biological target: T1, DNA topoisomerase 1 (Homo sapiens); test: Inhibition of recombinant human topoisomerase 1 assessed as supercoiled pBR322 DNA at 50 uM incubated for 1 hr by ethidium bromide staining based agarose gel electrophoresis method relative to control; parameters: scale not given: the % may be the effect or the level left
[19] = biological target: T2, DNA topoisomerase II (Homo sapiens) (UniProt P11388+Q02880); test: Inhibition of recombinant human topoisomerase 2 assessed as supercoiled DNA at 25 uM incubated for 1 hr by ethidium bromide staining based agarose gel electrophoresis method relative to control; format: protein assay; parameters: scale not given: the % may be the effect or the level left
DNA [20] = test: Induction of Escherichia coli plasmid pBR322 DNA cleavage assessed as decrease in supercoiled DNA at 6.25 to 50 uM in presence of light irradiation and incubated for 1 hr by agarose gel electrophoresis relative to control; format: nucleic-acid assay; parameters: scale not given: the % may be the effect or the level left
DNA [21] = test: Induction of Escherichia coli plasmid pBR322 DNA cleavage assessed as increase in nicked circular DNA at 3.125 uM in presence of light irradiation and incubated for 1 hr by agarose gel electrophoresis relative to control; format: nucleic-acid assay
[22] = biological target: T1, DNA topoisomerase 1 (Homo sapiens); test: Inhibition of recombinant human topoisomerase 1 assessed as supercoiled pBR322 DNA at 12.5 uM incubated for 1 hr by ethidium bromide staining based agarose gel electrophoresis method relative to control; parameters: scale not given: the % may be the effect or the level left
[23] = biological target: T2, DNA topoisomerase II (Homo sapiens); test: Inhibition of recombinant human topoisomerase 2 assessed as supercoiled DNA at 12.5 uM incubated for 1 hr by ethidium bromide staining based agarose gel electrophoresis method relative to control; format: protein assay; parameters: scale not given: the % may be the effect or the level left
HCT-116 [24] = test: Induction of apoptosis in human HCT116 cells assessed as viable cells at 50 uM incubated for 24 hrs in presence of irradiation by annexin V FITC and propidium iodide based flow cytometry (reference value: 94.8 %); format: functional; conditions: HCT-116, light or radiation study, read-out: Activity
[25] = biological target: T1, DNA topoisomerase 1 (Homo sapiens); test: Inhibition of recombinant human topoisomerase 1 assessed as supercoiled pBR322 DNA at 25 uM incubated for 1 hr by ethidium bromide staining based agarose gel electrophoresis method relative to control; parameters: scale not given: the % may be the effect or the level left
HCT-116 [26] = test: Induction of apoptosis in human HCT116 cells assessed as late apoptotic cells at 50 uM incubated for 24 hrs in presence of irradiation by annexin V FITC and propidium iodide based flow cytometry (reference value: 1.6 %); format: functional

CC1=CC(/C=C/c2ccc(OCCCc3ccc[n+](C)c3)cc2)=[N+]2C1=C(c1ccc(OCCCc3ccc[n+](C)c3)cc1)c1c(C)cc(/C=C/c3ccc(OCCCc4ccc[n+](C)c4)cc3)n1[B-]2(F)F.[I-].[I-].[I-]
Activity (DNA [1]): inactive | Activity [2]: 0.21 | Activity (Calf thymus DNA [3]): inactive | Activity (DNA [4]): Dose-dependent effect | viability at 5 µM (HCT-116 [5]): 23% | inhibition [6]: 100% | Activity (HCT-116 [7]): 30.5% | Activity (HCT-116 [8]): inactive | Activity (HCT-116 [9]): Dose-dependent effect | IC50 (HCT-116 [9]): > 100 µM | Activity (DNA [10]): inactive | Activity (Calf thymus DNA [11]): 47.8% | Activity [12]: 0.46 | Activity (DNA [13]): inactive | viability at 50 µM (HCT-116 [14]): 67%

CC1=CC(/C=C/c2ccc(OCCCc3ccc[n+](C)c3)c(OCCCc3ccc[n+](C)c3)c2)=[N+]2C1=C(c1ccc(OCCCc3ccc[n+](C)c3)c(OCCCc3ccc[n+](C)c3)c1)c1c(C)cc(/C=C/c3ccc(OCCCc4ccc[n+](C)c4)c(OCCCc4ccc[n+](C)c4)c3)n1[B-]2(F)F.[I-].[I-].[I-].[I-].[I-].[I-]
Activity (DNA [15]): Active | Activity [2]: 0.3 | Activity (HCT-116 [16]): 0.2% | Activity (HCT-116 [17]): 4.8% | Activity (HCT-116 [8]): inactive | Activity [18]: 69.5% | Activity [19]: 81.8% | IC50 (HCT-116 [9]): > 100 µM | Activity (DNA [20]): 100% | Activity (DNA [21]): 41.5% | Activity [22]: 64.2% | Activity (Calf thymus DNA [11]): 46.7% | Activity [23]: 77.5% | viability at 50 µM (HCT-116 [24]): 93.7% | Activity [12]: 0.62 | Activity [25]: 66% | viability at 50 µM (HCT-116 [14]): 100% | Activity (HCT-116 [26]): 1.4%
